Measurements taken from the NIST ThermoML archive (doi:10.1021/acs.jced.8b00948).
Numbers after ± are expanded uncertainties.

Test: xn = mol fraction of the nth substance listed
Settings: for surface tension liquid-gas: Pendant drop shape; for viscosity: 101 kPa, Liquid, Concentric cylinders viscometry

CCn1cc[n+](C)c1.COS(=O)(=O)[O-] [1-ethyl-3-methylimidazolium methylsulfate] + CCCCCO
Settings	surface tension liquid-gas, 298.15 K [mN/m]	surface tension liquid-gas, 303.15 K [mN/m]	surface tension liquid-gas, 308.15 K [mN/m]	surface tension liquid-gas, 313.15 K [mN/m]	viscosity, 298.15 K [mPa·s]	viscosity, 303.15 K [mPa·s]	viscosity, 308.15 K [mPa·s]	viscosity, 313.15 K [mPa·s]
x1 = 0.05	26.1 ± 0.6	25.7 ± 0.6	25.3 ± 0.6	24.9 ± 0.6	5.15 ± 0.32	4.07 ± 0.25	3.74 ± 0.23	3.24 ± 0.2
x1 = 0.284	32.3 ± 0.7	32 ± 0.7	31.6 ± 0.7	31.3 ± 0.7	14.8 ± 0.9	11.9 ± 0.7	10.2 ± 0.6	8.52 ± 0.52
x1 = 0.459	37.1 ± 0.8	36.8 ± 0.8	36.5 ± 0.8	36.2 ± 0.8	24.4 ± 1.5	19.4 ± 1.2	16.3 ± 1	13.6 ± 0.8
x1 = 0.613	41.4 ± 0.9	41.1 ± 0.9	40.8 ± 0.9	40.5 ± 0.9	34.7 ± 2.1	27.3 ± 1.7	22.5 ± 1.4	18.7 ± 1.1
x1 = 0.768	45.8 ± 1.1	45.5 ± 1.1	45.2 ± 1.1	44.9 ± 1	46.9 ± 2.8	37 ± 2.2	30.5 ± 1.9	25.2 ± 1.5
x1 = 0.922	50.3 ± 1.2	50 ± 1.2	49.7 ± 1.2	49.4 ± 1.2	60.9 ± 3.7	48.8 ± 3	40.1 ± 2.4	33.3 ± 2
x1 = 1	52.5 ± 1.3	52.2 ± 1.2	51.9 ± 1.2	51.6 ± 1.2	68.5 ± 4.2	55.4 ± 3.4	45.5 ± 2.8	37.9 ± 2.3

CCn1cc[n+](C)c1.COS(=O)(=O)[O-] [1-ethyl-3-methylimidazolium methylsulfate] + CCCCO
Settings	surface tension liquid-gas, 298.15 K [mN/m]	surface tension liquid-gas, 303.15 K [mN/m]	surface tension liquid-gas, 308.15 K [mN/m]	surface tension liquid-gas, 313.15 K [mN/m]	viscosity, 298.15 K [mPa·s]	viscosity, 303.15 K [mPa·s]	viscosity, 308.15 K [mPa·s]	viscosity, 313.15 K [mPa·s]
x1 = 0.041	25 ± 0.6	24.7 ± 0.6	24.3 ± 0.6	23.9 ± 0.5	3.84 ± 0.24	3.3 ± 0.21	2.86 ± 0.18	2.45 ± 0.15
x1 = 0.219	29.9 ± 0.7	29.5 ± 0.7	29.2 ± 0.7	28.9 ± 0.7	10.7 ± 0.7	8.75 ± 0.53	7.38 ± 0.45	6.22 ± 0.38
x1 = 0.417	35.3 ± 0.8	35.1 ± 0.8	34.7 ± 0.8	34.5 ± 0.8	20.3 ± 1.2	16.4 ± 1	13.8 ± 0.8	11.4 ± 0.7
x1 = 0.571	39.8 ± 0.9	39.5 ± 0.9	39.2 ± 0.9	38.9 ± 0.9	29 ± 1.8	23.4 ± 1.4	19.5 ± 1.2	16.2 ± 1
x1 = 0.731	44.4 ± 1	44.2 ± 1	43.9 ± 1	43.6 ± 1	41.1 ± 2.5	33.1 ± 2	27.5 ± 1.7	22.8 ± 1.4
x1 = 0.909	49.8 ± 1.2	49.5 ± 1.2	49.2 ± 1.2	48.9 ± 1.2	58.2 ± 3.5	46.8 ± 2.8	38.4 ± 2.3	31.8 ± 1.9
x1 = 1	52.5 ± 1.3	52.2 ± 1.2	51.9 ± 1.2	51.6 ± 1.2	68.5 ± 4.2	55.4 ± 3.4	45.5 ± 2.8	37.9 ± 2.3

CCn1cc[n+](C)c1.COS(=O)(=O)[O-] [1-ethyl-3-methylimidazolium methylsulfate] + CCCO
Settings	surface tension liquid-gas, 298.15 K [mN/m]	surface tension liquid-gas, 303.15 K [mN/m]	surface tension liquid-gas, 308.15 K [mN/m]	surface tension liquid-gas, 313.15 K [mN/m]	viscosity, 298.15 K [mPa·s]	viscosity, 303.15 K [mPa·s]	viscosity, 308.15 K [mPa·s]	viscosity, 313.15 K [mPa·s]
x1 = 0.059	24.8 ± 0.6	24.4 ± 0.6	24 ± 0.5	23.6 ± 0.5	3.71 ± 0.23	3.14 ± 0.2	2.72 ± 0.17	2.36 ± 0.15
x1 = 0.228	29.5 ± 0.7	29.1 ± 0.7	28.8 ± 0.7	28.5 ± 0.6	9.94 ± 0.6	8.07 ± 0.49	6.8 ± 0.41	5.75 ± 0.35
x1 = 0.375	33.6 ± 0.8	33.4 ± 0.8	33.1 ± 0.7	32.8 ± 0.7	17 ± 1	13.7 ± 0.8	11.6 ± 0.7	9.72 ± 0.59
x1 = 0.524	38 ± 0.9	37.7 ± 0.9	37.4 ± 0.9	37.2 ± 0.8	24.7 ± 1.5	19.8 ± 1.2	16.6 ± 1	13.9 ± 0.8
x1 = 0.72	43.8 ± 1	43.6 ± 1	43.3 ± 1	43 ± 1	38.9 ± 2.4	31.3 ± 1.9	25.9 ± 1.6	21.6 ± 1.3
x1 = 0.874	48.6 ± 1.1	48.3 ± 1.1	48 ± 1.1	47.7 ± 1.1	52.7 ± 3.2	42.5 ± 2.6	35.1 ± 2.1	29.2 ± 1.8
x1 = 1	52.5 ± 1.3	52.2 ± 1.2	51.9 ± 1.2	51.6 ± 1.2	68.5 ± 4.2	55.4 ± 3.4	45.5 ± 2.8	37.9 ± 2.3

CCCCO [butan-1-ol] + CCn1cc[n+](C)c1.COS(=O)(=O)[O-]
x2 = 0
Settings	surface tension liquid-gas [mN/m]	viscosity [mPa·s]
298.15 K	23.9 ± 0.5	2.57 ± 0.15
303.15 K	23.5 ± 0.5	2.28 ± 0.14
308.15 K	23.1 ± 0.5	2.01 ± 0.12
313.15 K	22.7 ± 0.5	1.75 ± 0.11

CCCCO [butan-1-ol] + COS(=O)(=O)[O-].Cn1cc[n+](C)c1
x2 = 0
Settings	surface tension liquid-gas [mN/m]	viscosity [mPa·s]
298.15 K	23.9 ± 0.5	2.57 ± 0.15
303.15 K	23.5 ± 0.5	2.28 ± 0.14
308.15 K	23.1 ± 0.5	2.01 ± 0.12
313.15 K	22.7 ± 0.5	1.75 ± 0.11

CCCCCO [pentan-1-ol] + CCn1cc[n+](C)c1.COS(=O)(=O)[O-]
x2 = 0
Settings	surface tension liquid-gas [mN/m]	viscosity [mPa·s]
298.15 K	24.7 ± 0.6	3.51 ± 0.21
303.15 K	24.3 ± 0.5	2.84 ± 0.17
308.15 K	23.9 ± 0.5	2.64 ± 0.16
313.15 K	23.5 ± 0.5	2.34 ± 0.14

CCCCCO [pentan-1-ol] + COS(=O)(=O)[O-].Cn1cc[n+](C)c1
x2 = 0
Settings	surface tension liquid-gas [mN/m]	viscosity [mPa·s]
298.15 K	24.7 ± 0.6	3.51 ± 0.21
303.15 K	24.3 ± 0.5	2.84 ± 0.17
308.15 K	23.9 ± 0.5	2.64 ± 0.16
313.15 K	23.5 ± 0.5	2.34 ± 0.14

CCCO [propan-1-ol] + CCn1cc[n+](C)c1.COS(=O)(=O)[O-]
x2 = 0
Settings	surface tension liquid-gas [mN/m]	viscosity [mPa·s]
298.15 K	23.2 ± 0.5	1.94 ± 0.12
303.15 K	22.8 ± 0.5	1.72 ± 0.1
308.15 K	22.3 ± 0.5	1.54 ± 0.09
313.15 K	21.9 ± 0.5	1.38 ± 0.08

CCCO [propan-1-ol] + COS(=O)(=O)[O-].Cn1cc[n+](C)c1
x2 = 0
Settings	surface tension liquid-gas [mN/m]	viscosity [mPa·s]
298.15 K	23.2 ± 0.5	1.94 ± 0.12
303.15 K	22.8 ± 0.5	1.72 ± 0.1
308.15 K	22.3 ± 0.5	1.54 ± 0.09
313.15 K	21.9 ± 0.5	1.38 ± 0.08
